Data: ChEMBL document CHEMBL5537152, “Targeted Degradation of PCSK9 In Vivo by Autophagy-Tethering Compounds” (J Med Chem, 2024)
Calls of active or inactive are those of the source. No cut-off for these calls is given here.

Legend:
[1] = tested on: Mus musculus; assay: Antiatherosclerotic activity in hypercholesterolemic ApoE-/- mouse model assessed as accumulation of cholesterol in liver at 5 to 15 mg/kg/day, ip measured after 21 days; assay type: functional, organism-based; conditions: dose 5-15 mg/kg/day, time 21.0 day
[2] = tested on: Mus musculus; assay: Antiatherosclerotic activity in hypercholesterolemic ApoE-/- mouse model assessed as decrease in liver PCSK9 level at 5 to 15 mg/kg/day, ip measured after 21 days by immunohistochemistry analysis; assay type: functional, organism-based; conditions: dose 5-15 mg/kg/day, time 21.0 day
[3] = tested on: Huh-7; assay: Cytotoxicity against human Huh-7 cells upto 1000 nM incubated for 24 hrs by MTT assay; assay type: toxicity, cell-based; conditions: huh-7, 24 h, 1 µM
[4] = tested on: Mus musculus; assay: Antiatherosclerotic activity in hypercholesterolemic ApoE-/- mouse model assessed as decrease in liver fibrosis at 5 to 15 mg/kg/day, ip measured after 21 days by H and E staining based analysis; assay type: functional, organism-based; conditions: dose 5-15 mg/kg/day, time 21.0 day
[5] = tested on: Mus musculus; assay: Antiatherosclerotic activity in hypercholesterolemic ApoE-/- mouse model assessed as decrease in plaque area in aortic arch at 5 to 15 mg/kg/day, ip measured after 21 days by Aortic oil red O staining based analysis; assay type: functional, organism-based; conditions: dose 5-15 mg/kg/day, time 21.0 day
[6] = tested on: Mus musculus; assay: Antiatherosclerotic activity in hypercholesterolemic ApoE-/- mouse model assessed as decrease in plasma LDL-C level administered intraperitoneally measured after 14 days; assay type: functional, organism-based; conditions: dose 15.0 mg/kg/day, route ip, time 14.0 day
[7] = tested on: Mus musculus; assay: Synergistic antiatherosclerotic activity in hypercholesterolemic ApoE-/- mouse model assessed as increase in liver LDLR at 5 to 15 mg/kg, ip administered daily for 3 weeks in presence of SIMV by Western blot analysis; assay type: functional, organism-based; conditions: dose 5-15 mg/kg
[8] = tested on: Huh-7; assay: Effect on LC3B level in human Huh-7 cells upto 100 nM incubated for 24 hrs by Western blot analysis; assay type: functional, cell-based
[9] = tested on: Mus musculus; assay: Effect on body weight in hypercholesterolemic ApoE-/- mouse model at 0.5 to 30 mg/kg/day, ip measured for 14 days; assay type: functional, organism-based; conditions: dose 0.5-30 mg/kg/day, time 14.0 day
[10] = tested on: Liver; assay: In vivo induction of PCSK9 degradation in liver of hypercholesterolemic ApoE-/- mouse model at administered intraperitoneally daily for 3 weeks in presence of SIMV by Western blot analysis; assay type: functional, organism-based; conditions: dose 5-15 mg/kg, route ip
[11] = tested on: Mus musculus; assay: Synergistic antiatherosclerotic activity in hypercholesterolemic ApoE-/- mouse model assessed as […] in liver IL-1beta level at 5 to 15 mg/kg, ip administered daily for 3 weeks in presence of SIMV by Western blot analysis; assay type: functional, organism-based; conditions: dose 5-15 mg/kg
[12] = tested on: Mus musculus; assay: Synergistic antiatherosclerotic activity in hypercholesterolemic ApoE-/- mouse model assessed as decrease in vacuolization in liver at 5 to 15 mg/kg, ip administered daily for 3 weeks in presence of SIMV by H and E staining based analysis; assay type: functional, organism-based; conditions: dose 5-15 mg/kg
[13] = tested on: Huh-7; assay: Effect on autophagic flux in human Huh-7 cells upto 100 nM incubated for 24 hrs by Western blot analysis; assay type: functional, cell-based
[14] = tested on: Mus musculus; assay: Antiatherosclerotic activity in hypercholesterolemic ApoE-/- mouse model assessed as decrease in oxidative stress at 5 to 15 mg/kg/day, ip measured after 21 days; assay type: functional, organism-based; conditions: dose 5-15 mg/kg/day, time 21.0 day
[15] = tested on: Mus musculus; assay: Synergistic antiatherosclerotic activity in hypercholesterolemic ApoE-/- mouse model assessed as increase in liver LDL uptake capacity at 5 to 15 mg/kg, ip administered daily for 3 weeks in presence of SIMV by Western blot analysis; assay type: functional, organism-based; conditions: dose 5-15 mg/kg
[16] = tested on: Mus musculus; assay: Synergistic antiatherosclerotic activity in hypercholesterolemic ApoE-/- mouse model assessed as decrease in liver fibrosis at 5 to 15 mg/kg, ip administered daily for 3 weeks in presence of SIMV by H and E staining based analysis; assay type: functional, organism-based; conditions: dose 5-15 mg/kg
[17] = tested on: Mus musculus; assay: Synergistic antiatherosclerotic activity in hypercholesterolemic ApoE-/- mouse model assessed as effect on plasma MDA level at 5 to 15 mg/kg, ip administered daily for 3 weeks in presence of SIMV; assay type: functional, organism-based; conditions: dose 5-15 mg/kg
[18] = tested on: Mus musculus; assay: Antiatherosclerotic activity in hypercholesterolemic ApoE-/- mouse model assessed as decrease in plasma LDL-C level administered intraperitoneally measured after 21 days; assay type: functional, organism-based; conditions: dose 5-15 mg/kg/day, route ip, time 21.0 day
[19] = tested on: Mus musculus; assay: Synergistic antiatherosclerotic activity in hypercholesterolemic ApoE-/- mouse model assessed as effect on plasma TG level at 5 to 15 mg/kg, ip administered daily for 3 weeks in presence of SIMV; assay type: functional, organism-based; conditions: dose 5-15 mg/kg
[20] = tested on: Huh-7; assay: Effect on PCSK9 mRNA level in human Huh-7 cells at 20 to 500 nM incubated for 12 hrs by qRT-PCR analysis; assay type: functional, cell-based; conditions: dose 20-500 nM
[21] = tested on: Mus musculus; assay: Antiatherosclerotic activity in hypercholesterolemic ApoE-/- mouse model assessed as decrease in liver PCSK9 level at 5 to 15 mg/kg/day, ip measured after 21 days by Western blot analysis; assay type: functional, organism-based; conditions: dose 5-15 mg/kg/day, time 21.0 day
[22] = tested on: Mus musculus; assay: Antiatherosclerotic activity in hypercholesterolemic ApoE-/- mouse model assessed as increase in liver LDLR level at 5 to 15 mg/kg/day, ip measured after 21 days by Western blot analysis; assay type: functional, organism-based; conditions: dose 5-15 mg/kg/day, time 21.0 day
[23] = tested on: Mus musculus; assay: Synergistic antiatherosclerotic activity in hypercholesterolemic ApoE-/- mouse model assessed as decrease in liver fibrosis at 5 to 15 mg/kg, ip administered daily for 3 weeks in presence of SIMV by Masson staining based analysis; assay type: functional, organism-based; conditions: dose 5-15 mg/kg

Which Activity [1] does the source give for `COc1cc2c(cc1OCCCCN1C(=O)/C(=C\c3cc(Br)c(O)c(OC)c3)c3cc(Br)ccc31)C(C)(CC(=O)Nc1nccs1)NCC2` (stereo not drawn) here?
Its Activity is “Active”.

And the Activity [2]?
The Activity was “Active”.

What about the Activity [3] of the same compound?
The Activity was “Non-Toxic”.

And the Activity [4]?
The Activity was “Active”.

What about the Activity [5] of the same compound?
Its Activity is “Active”.

What about the Activity [6] of the same compound?
The Activity was “Dose-Dependent Effect”.

And the Activity [7]?
Its Activity is “Active”.

And the Activity [8]?
Its Activity is “inactive”.

What about the Activity [9] of the same compound?
Its Activity is “inactive”.

What about the Activity [10] of the same compound?
The Activity was “Dose-Dependent Effect”.

And the Activity [11]?
Its Activity is “Active”.

What about the Activity [12] of the same compound?
Its Activity is “Active”.

What about the Activity [13] of the same compound?
Its Activity is “inactive”.

And the Activity [14]?
Its Activity is “Active”.

And the Activity [15]?
Its Activity is “Active”.

And the Activity [16]?
The Activity was “Active”.

And the Activity [17]?
The Activity was “Active”.

And the Activity [18]?
Its Activity is “Dose-Dependent Effect”.

And the Activity [19]?
The Activity was “Active”.

And the Activity [20]?
The Activity was “inactive”.

What about the Activity [21] of the same compound?
The Activity was “Active”.

And the Activity [22]?
Its Activity is “Active”.

And the Activity [23]?
Its Activity is “Active”.
